# Results as given in patent US20230257315A1, “AGRICULTURE COMPOSITIONS AND AP[…] MINERAL COMPOUNDS” (Ralco Nutrition, Inc., priority 2012, published 2023).
# Columns and labels:
# corn [1] = conditions: 5 g elemental cobalt per acre in-furrow
# Source text: Various cobalt compounds were applied in-furrow to natural soil with corn seeded, then grown in greenhouse conditions. The cobalt compounds were applied at a rate of 5 g elemental cobalt per acre and compared to an untreated control. The compounds included: cobalt acetate, cobalt carbonate, cobalt gluconate and cobalt sulfate. The trial consisted of four replicates in a randomized complete block design. The plants were harvested after 53 days of growth and measured for plant health characteristics and nutrient uptake.
# corn [2] = test: Greenhouse study of absorptivity of cobalt lactate into corn vegetative tissue with and without glyphosate; format: in vivo; conditions: foliar spray at V4-V6, day 6
# Experimental: A greenhouse study was completed to evaluate the absorptivity of cobalt lactate into corn vegetative tissue when applied with and without glyphosate herbicide. The corn seeds were potted in natural soil and allowed to grow to the V4-V6 growth stage. At this time the plants were treated with foliar sprays of cobalt lactate, and cobalt lactate with glyphosate and ammonium sulfate (AMS). The glyphosate was commercially available and used at the recommended use rate of 1 qt per acre. The AMS was applied as described in Example 6. Six replicate vegetative portions of the plants were sampled at days 1 and 6 after the application and analyzed for cobalt content.
# The initial absorption rate was slowed with the addition of glyphosate and AMS to the cobalt lactate solution.
# field corn = test: Cobalt lactate in-furrow with field corn, greenhouse, nutrient uptake; format: in vivo; conditions: 5 g cobalt per acre in-furrow, 53 days of growth
# [3] = 53 days of growth, vs untreated control
molecule,measurement,setting,value
cobalt gluconate,increase in vegetative K concentration,corn [1]; [3],2.3%
O=C([O-])[O-].[Co+2] [cobalt carbonate],increase in root mass,corn [1]; [3],6.7%
same,vegetative wet weight,corn [1]; [3],slight increase
CC(=O)[O-].CC(=O)[O-].[Co+2] [cobalt acetate],increase in the vegetative N content,corn [1]; [3],1.7%
same,increase in vegetative K concentration,corn [1]; [3],9.3%
same,tissue concentration increase Fe,"corn [1]; vegetative tissue, 53 days",20.9%
same,tissue concentration increase Mn,"corn [1]; vegetative tissue, 53 days",37.5%
same,tissue concentration increase Zn,"corn [1]; vegetative tissue, 53 days",9.4%
cobalt lactate,cobalt concentration in vegetative tissue after 6 days,corn [2],consistent between the two treatments
same,increase of nitrogen within the vegetation over the untreated control,field corn,4.6%
same,increase of potassium within the vegetation over the untreated control,field corn,7.8%
same,nitrogen concentration increase within the root over the untreated control,field corn,2.2%
same,phosphorus concentration increase within the root over the untreated control,field corn,4.2%
same,phosphorus content within the vegetation versus untreated control,field corn,no difference
same,potassium concentration increase within the root over the untreated control,field corn,12.2%
